Like-named read-outs stand apart in the source and are kept apart here.
How the values were obtained:
[1] = system: H3255; assay: Non Small Cell Lung Cancer proliferation assay (Alamar Blue reduction), H3255; format: cell-based, human; conditions: Homo sapiens, NCI-H3255, dose response 10 M to 5 nM; IC50; read-out: Dose Response (uM) H3255
Summary of the method: (§1)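 Compounds are tested at 1% DMSO final concentration against adherent NSCLC cells for 48 h at 37° C, with cytotoxicity measured by Alamar Blue reduction after a further 48 h incubation.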

[2] = system: H1650; assay: Non Small Cell Lung Cancer proliferation assay (Alamar Blue reduction), H1650; format: cell-based, human; conditions: Homo sapiens, NCI-H1650, dose response 10 M to 5 nM; IC50; read-out: Dose Response (uM) H1650
Summary of the method: as §1

[3] = system: H1118; assay: Non Small Cell Lung Cancer proliferation assay (Alamar Blue reduction), H1118; format: cell-based; conditions: Homo sapiens; read-out: Dose Response (uM) H1118
Experimental: (§2) Non Small Cell Lung Cancer Proliferation Assay. To perform the assay, the Non Small Cell Lung Cancer lines are diluted in media and plated into 384 well microplates at a final density of 250 cells in […]. To ensure consistency and minimal pipetting error, the cells are plated using the Multidrop 384 with the following settings: Rocker Switch set at 384, Volume 45 and Column 24.
(§3) Low Controls for this assay are made by treating Non Small Cell Lung Cancer cells with 5 ul of staurosporine at 250 uM in 10% DMSO and 1% SDS. [Final concentration in this assay is 25 uM staurosporine in 1% DMSO and 0.1% SDS.]
(§4) High Controls for this assay are made by treating Non Small Cell Lung Cancer cells with 5 ul of 10% DMSO. [Final concentration in this assay is 1% DMSO].
(§5) The remaining wells of the 384 microplate may be treated with different compounds depending on the study. Important Note: All compounds for testing in this assay should be done at the final concentration of 1% DMSO.
(§6) After addition, the cells are placed in cell culture incubator at 37° C. for 48 hours for complete treatment.
(§7) After drug treatment, cytotoxicity is measured by Alamar Blue reduction. 5 μL of Alamar Blue is added to the 384 microplates using the Flexdrop.
(§8) The cells are incubated for 48 hours at 37° C. to complete the Alamar Blue reduction.
(§9) The final step in the assay is to measure the amount of Alamar Blue reduction. […] The Alamar Blue fluorescence is measured at an excitation of 530 nm and emission of 590 nm.
(§10) For the NSCLC project, the cell based assay was screened against a small molecule library of approximately 200,000 compounds. The compound library is stored in our automated robotic freezer (Biophile) at −20° C. in 100% DMSO. Compound freeze and thaw cycles are kept to a minimum. Compounds for use are diluted into the appropriate concentration and plated into 384 well microplates using our custom built low volume 384-well head tool (TPS 384, Apricot Designs Inc., CA, USA). This assay was performed on a fully automated linear track robotic platform (CRS F3 Robot System, Thermo Electron Corp., Ontario, Canada) utilizing several integrated peripherals for plate handling, liquid dispensing, and readout detection. First, non-small cell lung cancer cell lines are dispensed into 384 well microplates (Corning #3712 Tissue Culture Treated Plate, Corning, N.Y., USA) with 5 μL of test compounds at 100 uM in 10% DMSO for screening studies or 1 mM in 10% DMSO to 50 nM in 10% DMSO for dose response studies. The microplates are then placed at 37° C. for 48 hours to complete treatment of cells with compounds. Next, 5 ul of alamar blue was added using a liquid dispenser (Flexprop Precision Dispenser, Perkin Elmer, Mass., USA) and incubated for 48 hours at 37° C. The alamar blue prompt fluorescence was measured on Victor V (Victor^3 V, Perkin Elmer, Mass., USA) and output data files were loaded into ORIS (Oncology Research Informatics System, MSKCC, NY, USA), a screening data acquisition and analysis platform.
(§11) The dose response studies were done with the following standard procedure. First, the cells were counted and dispensed at 250 cells/well into 384-well microplates with compound. The cells were incubated for 48 hours at 37 C to complete treatment, and then alamar blue was added for an additional 48 hours. Finally, alamar blue reduction was measured and the data was loaded into ORIS, our data screening acquisition platform.

[4] = system: H358; assay: Non Small Cell Lung Cancer proliferation assay (Alamar Blue reduction), H358; format: cell-based; conditions: Homo sapiens, read-out: Dose Response (uM) H358
Experimental: (§12) These cells have a doubling time of 1-2 days. All cell types are adherent and grow in colonies. The cells should be kept at a density between 50,000 cells/mL -500,000 cells/mL to provide for optimum growth and adequate nutrition. The cell line should be maintained at 37° C. in a humidified atmosphere with 5% CO2 in a sterile cell culture incubator.
(§13) Non Small Cell Lung Cancer Proliferation Assay.
as §4
(§14) Important Note: All compounds for testing in this assay should be done at the final concentration of 1% DMSO.
as §6
(§15) After drug treatment, cytotoxicity is measured by Alamar Blue reduction.
as §8, §9
as §10, with “Compounds for use are diluted into the appropriate concentration and plated into 384 well microplates using our custom built low volume 384-well head tool (TPS 384, Apricot Designs Inc., CA, USA).” left out, “First, non-small cell lung cancer cell lines are dispensed into 384 well microplates (Corning #3712 Tissue Culture Treated Plate, Corning, N.Y., USA) with 5 μL of test compounds at 100 uM in 10% DMSO for screening studies or 1 mM in 10% DMSO to 50 nM in 10% DMSO for dose response studies.” left out
as §11

[5] = system: H1975; assay: Non Small Cell Lung Cancer proliferation assay (Alamar Blue reduction), H1975; format: cell-based, human; conditions: Homo sapiens, NCI-H1975, dose response 10 M to 5 nM; IC50; read-out: Dose Response (uM) H1975
Summary of the method: as §1

[6] = system: H2030; assay: Non Small Cell Lung Cancer proliferation assay (Alamar Blue reduction), H2030; format: cell-based, human; conditions: Homo sapiens, NCI-H2030, dose response 10 M to 5 nM; IC50; read-out: Dose Response (uM) H2030
Summary of the method: as §1

[7] = in vitro; conditions: human
Experimental: NHBE (normal human bronchiolar epithelial cells) are primary cells obtained from donor lungs and commercially available from Cambrex. The HPL1D (human peripheral lung epithelial) cell line has been immortalized with the SV40 large T-antigen. WI-38: human lung fibroblast cell line. HPLID, NHBE and WI-38 cells will serve as controls in the chemical screens. WT: wildtype; WT*: over-expressed wildtype.
Compounds were tested in dose response studies from […] to 5 nM against several non small cell lung cancer lines: H358, H827, H1118, H1650, H1734, H1975, H2030, and H3255, and were also studied in a 72 hour cytotoxicity assay against the NHBE and WI-38 cell lines.

[8] = system: H1734; assay: Non Small Cell Lung Cancer proliferation assay (Alamar Blue reduction), H1734; format: cell-based, human; conditions: Homo sapiens, read-out: Dose Response (uM) H1734
Experimental: as §12, §13, §4, §14, §6, §15, §8, §9
as §10, with “Compounds for use are diluted into the appropriate concentration and plated into 384 well microplates using our custom built low volume 384-well head tool (TPS 384, Apricot Designs Inc., CA, USA).” left out, “First, non-small cell lung cancer cell lines are dispensed into 384 well microplates (Corning #3712 Tissue Culture Treated Plate, Corning, N.Y., USA) with 5 μL of test compounds at 100 uM in 10% DMSO for screening studies or 1 mM in 10% DMSO to 50 nM in 10% DMSO for dose response studies.” left out
as §11

[9] = system: H827; assay: Non Small Cell Lung Cancer proliferation assay (Alamar Blue reduction), H827; format: cell-based; conditions: Homo sapiens; read-out: Dose Response (uM) H827
Experimental: as §12, with “[…] are grown and maintained in Corning 175 cm2 flasks in RPMI 1640 media supplemented with 10% FBS, 1% antibiotic solution, 1% additional glutamine and pyruvate. These” for “These”
as §2, §3, §4, §5, §6, §7, §8, §9, §10

Row | IC50 [1] [µM] | IC50 [2] [µM] | IC50 [3] [µM] | IC50 ([4]; NCI-H358) [µM] | IC50 [5] [µM] | IC50 [6] [µM] | IC50 ([8]; NCI-H1734) [µM] | IC50 [9] [µM] | Compound | IC50 at 72 h ([7]; CytoTox (uM) NHBE) [µM] | IC50 at 72 h ([7]; CytoTox (uM) WI-38) [µM] | IC50 ([4]; NCI-H358, dose response 10 M to 5 nM, IC50) [µM] | IC50 ([8]; NCI-H1734, dose response 10 M to 5 nM, IC50) [µM]
1 | > 10 | > 10 | > 10 | > 10 | > 10 | > 10 | > 10 | > 10 | O=c1c(Br)c(SCc2ccccc2)cnn1-c1ccccc1 [compound 257021] | > 10 | > 10 |  | 
2 | > 10 | > 10 | > 10 | > 10 | > 10 | > 10 | > 10 | > 10 | O=c1c(Cl)c(SCc2ccccc2)cnn1-c1ccccc1 [compound 257022] | > 10 | > 10 |  | 
3 | > 10 | > 10 | > 10 | > 10 | > 10 | > 10 | > 10 | > 10 | N/N=C1\C=NN(c2ccccc2)C(=O)C1Cl (stereo not shown) [compound 257023] | > 10 | > 10 |  | 
4 | > 10 | > 10 | > 10 | > 10 | > 10 | > 10 | > 10 | > 10 | CN/N=C1\C=NN(c2ccc(C)cc2)C(=O)C1Cl (stereo not shown) [compound 257025] | > 10 | > 10 |  | 
5 | > 10 | > 10 |  | > 10 | > 10 | > 10 | > 10 |  | COc1ccc(=O)n(-c2cccc(C)c2)n1 [compound 257029] | > 10 | > 10 |  | 
6 | > 10 | > 10 |  | > 10 | > 10 | > 10 | > 10 |  | O=c1c(Cl)c(Cl)cnn1-c1c(Cl)cc(C(F)(F)F)cc1Cl [compound 267059] | > 10 | > 10 |  | 
7 | > 10 | > 10 |  | > 10 | > 10 | > 10 | > 10 |  | CCN(CC)c1cnn(-c2cccc(C)c2)c(=O)c1Cl [compound 267074] | > 10 | > 10 |  | 
8 | > 10 | > 10 |  | > 10 | > 10 | > 10 | > 10 |  | CCN(CC)c1c(Cl)cnn(-c2cccc(C)c2)c1=O [compound 267076] | > 10 | > 10 |  | 
9 | > 10 | > 10 |  | > 10 | > 10 | > 10 | > 10 |  | Cc1cccc(-n2ncc(N=[N+]=[N-])c(Cl)c2=O)c1 [compound 267082] | > 10 | > 10 |  | 
10 | > 10 | > 10 |  | > 10 | 6.76 | > 10 | > 10 |  | Cc1cccc(-n2ncc(I)cc2=O)c1 [compound 267086] | > 10 | > 10 |  | 
11 | > 10 | > 10 |  | > 10 | > 10 | > 10 | > 10 |  | Cc1cccc(-n2nc(OCCCNC(=O)CCC(=O)O)c(Cl)c(Cl)c2=O)c1 [compound 273632] | > 10 | > 10 |  | 
12 | > 10 | > 10 |  | > 10 | > 10 | > 10 | > 10 |  | O=C(O)CCC(=O)NCCCOc1cccc(-n2ncc(Br)c(Br)c2=O)c1 [compound 273633] | > 10 | > 10 |  | 

Row | Compound | IC50 [1] [µM] | IC50 [2] [µM] | IC50 [3] [µM] | IC50 ([4]; NCI-H358) [µM] | IC50 [5] [µM] | IC50 [6] [µM] | IC50 ([8]; NCI-H1734) [µM] | IC50 [9] [µM] | IC50 at 72 h ([7]; CytoTox (uM) NHBE) [µM] | IC50 at 72 h ([7]; CytoTox (uM) WI-38) [µM] | IC50 ([4]; NCI-H358, dose response 10 M to 5 nM, IC50) [µM] | IC50 ([8]; NCI-H1734, dose response 10 M to 5 nM, IC50) [µM]
13 | CCOc1cnn(-c2cccc(C)c2)c(=O)c1Cl [compound 267075] | > 10 | > 10 |  |  | > 10 | > 10 |  |  | > 10 | > 10 | > 10 | > 10

Source: patent publication US20100210649A1, “PYRIDAZINONES AND FURAN-CONTAINING COMPOUNDS” (Sloan-Kettering Institute for Cancer Research, priority 2006, published 2010)
